Several values for one entry are separate records, joined by “and”; a condition that tells them apart may be missing. Equal entries are not always repeated.
system: S. typhi GFP reporter counter-screen, fluorescence, 4 h; assay: inhibitors in S. typhi counter-screen strain, dose response, counter-screen for PhoP regulon inhibitor project, fluorescence, 4 h (AID 2384)

**Q.** For `Cc1cc(C2CCCCC2)n(O)c(=O)c1`, which IC50 is on record?
**A.** 13.7 µM

**Q.** How did the IC50 turn out when `CCCCCC(CC(=O)NO)C(=O)NC(C(=O)N1CCCC1CO)C(C)C` (stereo not drawn) was run?
**A.** 20.3 µM

**Q.** With `CCN1CCN(CCCNC(=O)c2ccc(/C=C3/Sc4ccccc4N(Cc4ccccc4F)C3=O)cc2)CC1` as the compound, how does the IC50 read?
**A.** 85.4 µM

**Q.** Which IC50 does the source give for `CCOC(=O)c1ccc(CNCc2ccc(Br)cc2)cc1` here?
**A.** 45.4 µM

**Q.** `O=C(Nc1ccc([N+](=O)[O-])cc1Cl)c1cc(Cl)ccc1O` was tested. Which IC50 did it give?
**A.** 19.7 µM

**Q.** For `CO[C@H]1/C=C/O[C@@]2(C)Oc3c(C)c(O)c4c(O)c(c(C=NN5CCN(C)CC5)c(O)c4c3C2=O)NC(=O)/C(C)=C\C=C\[C@H](C)[C@H](O)[C@@H](C)[C@@H](O)[C@@H](C)[C@H](OC(C)=O)[C@@H]1C`, which IC50 is on record?
**A.** 8.94 µM

**Q.** With `COc1c(N2CCN(C(=S)Nc3ccc(F)cc3)C(C)C2)c(F)cc2c(=O)c(C(=O)O)cn(C3CC3)c12` (stereo not drawn) as the compound, how does the IC50 read?
**A.** 18.3 µM

**Q.** With `COc1ccc(CNCCC(c2ccccc2)c2ccc3c(c2)OCO3)cc1` (stereo not drawn) as the compound, how does the IC50 read?
**A.** 73.4 µM

**Q.** With `COc1cc(/C=N/N=C(N)N)ccc1OCc1ccc(Cl)cc1` as the compound, how does the IC50 read?
**A.** 46.8 µM

**Q.** For `CN1CCN(c2c(F)cc3c(=O)c(C(=O)O)cn4c3c2SCC4)CC1`, which IC50 is on record?
**A.** 6.28 µM and 8.88 µM

**Q.** Which IC50 does the source give for `O=[N+]([O-])c1cc([N+](=O)[O-])c2cccnc2c1Oc1ccccc1O` here?
**A.** 41.7 µM

**Q.** With `Cc1c(N2C(=O)/C(=C3\C(=O)N(CC(=O)O)c4ccccc43)SC2=S)c(=O)n(-c2ccccc2)n1C` as the compound, how does the IC50 read?
**A.** 95.2 µM

**Q.** With `O=C(N/N=C/c1ccc([N+](=O)[O-])s1)c1cccnc1` as the compound, how does the IC50 read?
**A.** 34.7 µM

**Q.** With `COc1c(N2CCN(C(=S)Nc3ccccc3F)C(C)C2)c(F)cc2c(=O)c(C(=O)O)cn(C3CC3)c12` (stereo not drawn) as the compound, how does the IC50 read?
**A.** 9.45 µM

**Q.** How did the IC50 turn out when `CCOc1ccc(/C=N/NC(=O)c2[nH]ncc2Br)c(O)c1` was run?
**A.** 43.7 µM

**Q.** Which IC50 does the source give for `Cc1cccc(C(=O)NNC(=S)NC(=O)c2cccs2)c1` here?
**A.** 66.3 µM

**Q.** How did the IC50 turn out when `CCC(=O)c1ccc(OCC(O)CNCCc2ccc(Cl)cc2)cc1` (stereo not drawn) was run?
**A.** 147 µM

**Q.** `CCCNC(=O)c1cn(CC)c2cc(N3CCN(C)CC3)c(F)cc2c1=O` was tested. Which IC50 did it give?
**A.** 30.6 µM

**Q.** Which IC50 does the source give for `CCN1CCCC1CNC(=O)c1cc2cc(F)ccc2[nH]1` (stereo not drawn) here?
**A.** 19 µM

**Q.** For `Cc1ccc(NC(=O)c2ccc([N+](=O)[O-])o2)c(C)c1`, which IC50 is on record?
**A.** 67.9 µM

**Q.** How did the IC50 turn out when `c1ccc(CN2CCC(Nc3nc(-c4cccs4)nc4ccccc34)CC2)cc1` was run?
**A.** 37.2 µM

**Q.** How did the IC50 turn out when `COCCCNC(=S)NNC(=O)c1ccccn1` was run?
**A.** 23.7 µM

**Q.** With `O/N=C/C1=C(Cl)c2ccccc2CC1` as the compound, how does the IC50 read?
**A.** 93.4 µM

**Q.** For `Cc1ccc2sc(N(CCCN(C)C)C(=O)c3ccc(Br)s3)nc2c1C`, which IC50 is on record?
**A.** 36.6 µM

**Q.** Which IC50 does the source give for `CN(C)CC/C=C1/c2cc(F)ccc2Sc2ccc(Cl)cc21` here?
**A.** 34.3 µM

**Q.** Which IC50 does the source give for `Cc1cc(C)nc(/N=C(\N)Nc2ccc(SC(F)F)cc2)n1` here?
**A.** 51.3 µM

**Q.** Which IC50 does the source give for `C#CCOCCOCCOCCNc1nc(N2CCN(C(=O)CCCCCCCCCCNC(=O)[C@H](CCCCN)n3cc(C)nn3)CC2)nc(N2CCN(C(=O)CCCCCCCCCCNC(=O)[C@H](CCCN=C(N)N)n3cc(C[C@@H](C)CC)nn3)CC2)n1` here?
**A.** 20.7 µM

**Q.** For `C/C=C/c1ccc(OCc2cc(=O)n3cc(C)ccc3n2)c(OC)c1`, which IC50 is on record?
**A.** 74.7 µM

**Q.** For `NC1=NC[C@H](CC2CCCCC2)N1CCc1cc(C(F)(F)F)cc(C(F)(F)F)c1`, which IC50 is on record?
**A.** 35.2 µM

**Q.** Which IC50 does the source give for `CS(=O)(=O)c1ccc2nc(NC(=O)c3ccc(Cl)nc3)sc2c1` here?
**A.** 27.8 µM

**Q.** `CCOC(=O)c1c(-c2ccccc2)oc2ccc(OCC(O)CNCCN(C)C)cc12` (stereo not drawn) was tested. Which IC50 did it give?
**A.** 36.8 µM

**Q.** With `C[C@H]1COc2c(C3(N)CC3)c(F)cc3c(=O)c(C(=O)O)cn1c23` as the compound, how does the IC50 read?
**A.** 0.9 µM

**Q.** `CC12CN3CC(C)(CN(C1)C3c1ccc(Br)cc1O)C2` (stereo not drawn) was tested. Which IC50 did it give?
**A.** 143 µM

**Q.** How did the IC50 turn out when `COc1ccccc1Nc1c2ccccc2nc2ccccc12` was run?
**A.** 99.9 µM

**Q.** For `Fc1ccc(NC(=S)Nc2cc(-c3ccccc3)[nH]n2)cc1Cl`, which IC50 is on record?
**A.** 71.7 µM

**Q.** For `CN(C)CCOC(=O)c1sc2ccccc2c1Cl`, which IC50 is on record?
**A.** 125 µM

**Q.** With `O=C(c1ccc([N+](=O)[O-])o1)N1CCOCC1` as the compound, how does the IC50 read?
**A.** 81.8 µM

**Q.** How did the IC50 turn out when `Cc1ccc(C)c(N/C(N)=N/c2nc(C)cc(C)n2)c1` was run?
**A.** 67.4 µM

**Q.** For `O=C(NCCCN1CCN(c2ccc(F)cc2)CC1)Nc1ccc([N+](=O)[O-])cc1`, which IC50 is on record?
**A.** 74.7 µM

**Q.** How did the IC50 turn out when `CC(Nc1nc(N2CCCCC2)nc2ccccc12)c1ccccc1` (stereo not drawn) was run?
**A.** 133 µM

**Q.** For `CNCC[C@H](Oc1cccc2ccccc12)c1cccs1`, which IC50 is on record?
**A.** 48.1 µM

**Q.** Which IC50 does the source give for `CCCCCc1ccc(OCCCC[n+]2cccc(C)c2)c(CCCCC)c1` here?
**A.** 64.9 µM

**Q.** With `N/C(=N\OS(=O)(=O)c1ccc(Cl)cc1)c1cccnc1` as the compound, how does the IC50 read?
**A.** 12.4 µM

**Q.** Which IC50 does the source give for `CN1C(=O)NC(c2cccc(O)c2)C(C(=O)c2cccs2)C1(O)C(F)(F)F` (stereo not drawn) here?
**A.** 24.6 µM

**Q.** For `O=[N+]([O-])c1ccc(/C=[N+](\[O-])CCO)o1`, which IC50 is on record?
**A.** 88.9 µM

**Q.** With `CN(C)CCCOC(=O)c1sc2ccccc2c1Cl` as the compound, how does the IC50 read?
**A.** 68.6 µM

**Q.** How did the IC50 turn out when `CC(NCc1ccccc1O)C12CC3CC(CC(C3)C1)C2` (stereo not drawn) was run?
**A.** 33.9 µM

**Q.** Which IC50 does the source give for `CN(C)CC/C=C1\c2ccccc2Sc2ccc(Cl)cc21` here?
**A.** 60 µM

**Q.** With `CC(C(=O)NC1CCS(=O)(=O)C1)N1C(=O)/C(=C/c2ccc(Cl)cc2)SC1=S` (stereo not drawn) as the compound, how does the IC50 read?
**A.** 18.2 µM

**Q.** For `CC1(C)N=C(N)N=C(N)N1c1ccc(Oc2ccc(Cl)cc2)c(Cl)c1`, which IC50 is on record?
**A.** 36.3 µM

**Q.** With `Clc1ccc(C[n+]2cc(-c3ccc(Cl)cc3)n3c2CCC3)cc1` as the compound, how does the IC50 read?
**A.** 37.7 µM

**Q.** `Oc1c(CN2CCOCC2)cc(COCc2ccccc2)c2cccnc12` was tested. Which IC50 did it give?
**A.** 36 µM

**Q.** Which IC50 does the source give for `C#CCOCCOCCOCCNc1nc(N2CCN(C(=O)CCCCCCCCCCNC(=O)[C@H]([C@@H](C)CC)n3cc(CCCCCN)nn3)CC2)nc(N2CCN(C(=O)CCCCCCCCCCNC(=O)[C@H]([C@@H](C)CC)n3cc(CCCCN=C(N)N)nn3)CC2)n1` here?
**A.** 25 µM
